Assays:
Assay in all cases: Large panel kinase profiling
Format in all cases: biochemical
Settings in all cases: 1 μM test article, 1 mM ATP
[1] = biological target: T1, CSK (Homo sapiens, UniProt P41240)
T1 construct: AssayQuant Technologies, Inc. (service laboratory)
Summary of the method: (§1)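 Kinase activity was followed with the PhosphoSens CSox-Sensor platform, testing compound at 1 μM in the presence of 1 mM ATP. Reactions ran at 30° C. and fluorescence (Ex 360 nm/Em 485 nm) was read kinetically every 1 min.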

[2] = biological target: T2, CDC42BPA/MRCKA (Homo sapiens, UniProt Q5VT25)
T2 construct: AssayQuant Technologies, Inc. (ran the panel)
Summary of the method: as §1

[3] = biological target: T3, TYK2(JH1) (Homo sapiens, UniProt P29597)
T3 construct: TYK2(JH1); AssayQuant Technologies, Inc. (contract laboratory that ran the panel)
T3 sequence (P29597 897-1176 limits assumed): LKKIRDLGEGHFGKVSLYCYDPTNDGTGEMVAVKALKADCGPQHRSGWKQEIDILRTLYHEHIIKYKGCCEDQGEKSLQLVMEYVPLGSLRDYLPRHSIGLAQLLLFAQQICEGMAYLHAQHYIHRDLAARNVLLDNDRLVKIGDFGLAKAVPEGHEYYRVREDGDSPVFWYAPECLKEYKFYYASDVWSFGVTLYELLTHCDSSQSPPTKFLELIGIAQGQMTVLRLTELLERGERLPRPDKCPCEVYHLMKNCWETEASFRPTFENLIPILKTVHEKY
Summary of the method: as §1

[4] = biological target: T4, SGK1 (Homo sapiens, UniProt O00141)
T4 construct: AssayQuant Technologies, Inc. (contract assay)
T4 sequence (O00141 1-431): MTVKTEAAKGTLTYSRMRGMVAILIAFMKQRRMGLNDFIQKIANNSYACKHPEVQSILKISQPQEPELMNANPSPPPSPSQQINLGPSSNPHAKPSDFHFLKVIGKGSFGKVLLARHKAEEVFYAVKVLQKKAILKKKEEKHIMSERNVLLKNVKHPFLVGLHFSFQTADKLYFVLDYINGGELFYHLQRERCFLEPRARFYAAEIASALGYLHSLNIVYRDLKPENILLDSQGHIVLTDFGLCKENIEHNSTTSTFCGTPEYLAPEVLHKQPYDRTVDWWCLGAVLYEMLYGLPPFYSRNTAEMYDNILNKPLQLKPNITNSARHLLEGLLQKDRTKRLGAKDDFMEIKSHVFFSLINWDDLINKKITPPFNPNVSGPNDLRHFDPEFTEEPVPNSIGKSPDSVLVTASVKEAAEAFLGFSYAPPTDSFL
Summary of the method: as §1

[5] = biological target: LYNB (Homo sapiens, UniProt P07948)
Summary of the method: as §1

[6] = biological target: T5, GRK7 (Homo sapiens, UniProt Q8WTQ7)
T5 construct: AssayQuant Technologies, Inc. (service provider)
T5 sequence (Q8WTQ7 1-553): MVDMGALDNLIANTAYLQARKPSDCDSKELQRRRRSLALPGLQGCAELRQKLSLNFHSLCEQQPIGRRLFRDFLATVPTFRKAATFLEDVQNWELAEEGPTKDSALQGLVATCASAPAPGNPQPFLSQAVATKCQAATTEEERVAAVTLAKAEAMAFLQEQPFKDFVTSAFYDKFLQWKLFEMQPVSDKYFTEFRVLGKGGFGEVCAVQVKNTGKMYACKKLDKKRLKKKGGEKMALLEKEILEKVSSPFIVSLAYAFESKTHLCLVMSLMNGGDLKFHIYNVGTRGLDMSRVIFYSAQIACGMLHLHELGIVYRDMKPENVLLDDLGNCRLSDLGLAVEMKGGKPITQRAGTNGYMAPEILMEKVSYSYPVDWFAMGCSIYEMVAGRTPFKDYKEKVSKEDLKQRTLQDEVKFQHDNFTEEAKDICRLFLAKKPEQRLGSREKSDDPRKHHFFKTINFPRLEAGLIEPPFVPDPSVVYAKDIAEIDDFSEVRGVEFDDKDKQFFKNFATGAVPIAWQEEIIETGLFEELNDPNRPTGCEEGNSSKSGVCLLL
Summary of the method: as §1

[7] = biological target: PRKAA1/AMPK111 (Homo sapiens, UniProt Q13131)
Summary of the method: as §1

[8] = biological target: T6, NTRK2/TRKB (Homo sapiens, UniProt Q16620)
T6 construct: AssayQuant Technologies, Inc. (assay service)
Summary of the method: as §1

[9] = biological target: BLK (Homo sapiens, UniProt P51451)
Summary of the method: as §1

[10] = biological target: T7, PRKCZ/PKCZ (Homo sapiens, UniProt Q05513)
T7 sequence (Q05513 1-592): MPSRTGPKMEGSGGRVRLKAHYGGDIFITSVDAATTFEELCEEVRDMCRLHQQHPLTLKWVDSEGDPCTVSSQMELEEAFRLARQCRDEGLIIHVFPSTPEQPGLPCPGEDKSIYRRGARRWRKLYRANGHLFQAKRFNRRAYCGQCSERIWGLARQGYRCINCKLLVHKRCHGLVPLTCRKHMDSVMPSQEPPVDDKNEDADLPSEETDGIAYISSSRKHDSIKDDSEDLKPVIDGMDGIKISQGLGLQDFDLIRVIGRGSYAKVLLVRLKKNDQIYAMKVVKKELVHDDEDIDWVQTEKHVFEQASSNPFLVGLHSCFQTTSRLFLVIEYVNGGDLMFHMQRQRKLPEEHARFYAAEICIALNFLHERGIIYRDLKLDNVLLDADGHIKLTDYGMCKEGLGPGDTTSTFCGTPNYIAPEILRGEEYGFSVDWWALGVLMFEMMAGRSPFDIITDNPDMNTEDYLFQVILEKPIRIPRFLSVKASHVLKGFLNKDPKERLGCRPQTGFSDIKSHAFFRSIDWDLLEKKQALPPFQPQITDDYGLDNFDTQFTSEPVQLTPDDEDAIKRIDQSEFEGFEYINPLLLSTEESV
Summary of the method: as §1

T6 sequence (Q16620 32-822): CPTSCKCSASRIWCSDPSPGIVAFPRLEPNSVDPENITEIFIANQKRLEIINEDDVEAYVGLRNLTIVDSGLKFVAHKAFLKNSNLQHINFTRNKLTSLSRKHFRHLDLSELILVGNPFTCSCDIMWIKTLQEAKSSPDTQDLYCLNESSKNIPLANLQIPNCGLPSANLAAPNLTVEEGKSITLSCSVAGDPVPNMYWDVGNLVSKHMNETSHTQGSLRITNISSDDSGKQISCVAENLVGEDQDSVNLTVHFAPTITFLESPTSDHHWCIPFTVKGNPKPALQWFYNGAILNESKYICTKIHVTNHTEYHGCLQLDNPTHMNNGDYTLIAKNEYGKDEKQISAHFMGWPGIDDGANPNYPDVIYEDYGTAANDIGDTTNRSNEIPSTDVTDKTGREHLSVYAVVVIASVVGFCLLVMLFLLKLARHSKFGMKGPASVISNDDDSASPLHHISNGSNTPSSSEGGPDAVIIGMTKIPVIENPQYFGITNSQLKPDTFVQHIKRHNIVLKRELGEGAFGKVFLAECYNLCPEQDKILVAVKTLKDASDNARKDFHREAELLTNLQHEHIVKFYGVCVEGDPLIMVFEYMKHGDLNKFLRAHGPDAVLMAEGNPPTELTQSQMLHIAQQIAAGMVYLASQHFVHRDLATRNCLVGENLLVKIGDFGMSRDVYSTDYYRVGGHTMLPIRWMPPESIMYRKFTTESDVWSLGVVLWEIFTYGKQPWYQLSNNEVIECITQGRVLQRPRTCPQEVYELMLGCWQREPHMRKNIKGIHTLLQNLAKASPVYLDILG
Chain of BLK (P51451 whole entry): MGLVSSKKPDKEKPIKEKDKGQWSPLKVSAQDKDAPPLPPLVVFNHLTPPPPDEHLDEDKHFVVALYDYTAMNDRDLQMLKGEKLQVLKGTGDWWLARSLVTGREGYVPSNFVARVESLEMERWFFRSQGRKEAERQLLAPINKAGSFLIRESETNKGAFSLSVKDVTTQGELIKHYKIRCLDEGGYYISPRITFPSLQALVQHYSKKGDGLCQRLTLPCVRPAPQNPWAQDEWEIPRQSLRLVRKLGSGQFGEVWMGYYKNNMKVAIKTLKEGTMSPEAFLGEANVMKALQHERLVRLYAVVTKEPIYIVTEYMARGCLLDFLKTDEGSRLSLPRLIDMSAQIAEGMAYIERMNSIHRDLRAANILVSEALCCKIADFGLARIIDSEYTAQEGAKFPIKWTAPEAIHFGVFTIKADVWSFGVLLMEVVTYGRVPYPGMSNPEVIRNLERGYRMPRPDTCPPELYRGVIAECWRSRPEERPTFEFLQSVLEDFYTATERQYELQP
Chain of LYNB (P07948 1-491 isoform P07948-2, species assumed): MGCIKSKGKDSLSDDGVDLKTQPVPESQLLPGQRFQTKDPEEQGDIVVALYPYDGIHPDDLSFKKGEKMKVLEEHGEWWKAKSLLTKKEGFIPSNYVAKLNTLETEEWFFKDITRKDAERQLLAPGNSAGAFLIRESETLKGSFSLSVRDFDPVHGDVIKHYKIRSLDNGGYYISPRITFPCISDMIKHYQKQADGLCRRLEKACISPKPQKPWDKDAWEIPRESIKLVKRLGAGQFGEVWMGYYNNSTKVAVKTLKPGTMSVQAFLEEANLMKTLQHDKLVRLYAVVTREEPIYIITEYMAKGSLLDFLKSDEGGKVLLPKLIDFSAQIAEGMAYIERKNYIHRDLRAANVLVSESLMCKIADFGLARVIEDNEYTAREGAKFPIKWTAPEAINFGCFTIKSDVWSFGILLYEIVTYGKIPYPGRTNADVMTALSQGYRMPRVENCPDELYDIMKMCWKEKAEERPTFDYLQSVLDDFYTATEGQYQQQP
T1 sequence (P41240 whole entry, species assumed): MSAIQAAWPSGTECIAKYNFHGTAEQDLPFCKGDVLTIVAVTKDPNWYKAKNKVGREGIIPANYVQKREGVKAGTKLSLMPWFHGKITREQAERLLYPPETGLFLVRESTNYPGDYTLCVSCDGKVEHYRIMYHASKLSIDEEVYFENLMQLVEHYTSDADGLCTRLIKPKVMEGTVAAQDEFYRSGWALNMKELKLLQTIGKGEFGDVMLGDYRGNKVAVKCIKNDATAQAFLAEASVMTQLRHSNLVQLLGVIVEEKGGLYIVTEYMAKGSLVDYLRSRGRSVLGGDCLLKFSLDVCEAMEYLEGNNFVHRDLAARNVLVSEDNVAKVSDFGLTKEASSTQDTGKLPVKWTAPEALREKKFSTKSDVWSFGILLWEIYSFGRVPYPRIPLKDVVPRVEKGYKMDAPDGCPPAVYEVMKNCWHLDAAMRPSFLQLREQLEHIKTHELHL
Chain of PRKAA1/AMPK111 (Q13131 whole entry, species assumed): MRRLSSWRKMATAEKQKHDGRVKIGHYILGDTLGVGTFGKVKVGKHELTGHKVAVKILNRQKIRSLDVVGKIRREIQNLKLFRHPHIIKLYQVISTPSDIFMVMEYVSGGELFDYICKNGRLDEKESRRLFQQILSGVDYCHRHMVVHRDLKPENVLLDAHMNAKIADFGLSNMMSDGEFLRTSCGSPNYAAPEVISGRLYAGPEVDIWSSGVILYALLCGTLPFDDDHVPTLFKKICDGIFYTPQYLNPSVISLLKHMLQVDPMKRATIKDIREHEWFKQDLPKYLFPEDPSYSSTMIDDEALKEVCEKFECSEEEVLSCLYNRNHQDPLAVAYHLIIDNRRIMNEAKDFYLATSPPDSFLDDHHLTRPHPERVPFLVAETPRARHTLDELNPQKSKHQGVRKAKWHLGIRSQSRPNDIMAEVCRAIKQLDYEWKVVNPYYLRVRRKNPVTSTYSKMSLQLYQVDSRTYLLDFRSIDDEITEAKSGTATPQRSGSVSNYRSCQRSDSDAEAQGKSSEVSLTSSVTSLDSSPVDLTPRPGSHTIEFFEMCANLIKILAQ
Chain of PRKAA1/AMPK111 (Q9Y478 whole entry partner, species assumed): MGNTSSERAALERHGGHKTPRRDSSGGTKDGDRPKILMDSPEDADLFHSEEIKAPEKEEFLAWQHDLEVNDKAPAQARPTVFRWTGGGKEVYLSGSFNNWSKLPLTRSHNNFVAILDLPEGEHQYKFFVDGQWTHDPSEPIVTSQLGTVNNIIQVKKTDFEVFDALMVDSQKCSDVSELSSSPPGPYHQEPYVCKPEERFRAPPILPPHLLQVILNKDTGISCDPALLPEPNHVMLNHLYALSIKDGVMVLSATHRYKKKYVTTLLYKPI
Chain of PRKAA1/AMPK111 (P54619 whole entry partner, species assumed): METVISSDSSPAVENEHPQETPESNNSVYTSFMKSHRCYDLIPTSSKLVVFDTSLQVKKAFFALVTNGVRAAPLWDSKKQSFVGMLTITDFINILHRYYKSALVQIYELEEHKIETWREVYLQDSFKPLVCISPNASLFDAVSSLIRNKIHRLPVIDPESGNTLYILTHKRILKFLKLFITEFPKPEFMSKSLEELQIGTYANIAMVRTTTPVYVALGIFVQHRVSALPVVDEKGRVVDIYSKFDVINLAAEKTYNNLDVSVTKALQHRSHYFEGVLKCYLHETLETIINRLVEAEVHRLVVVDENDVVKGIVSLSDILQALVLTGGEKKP

Structure (SMILES)	inhibition at 1 µM [1]	inhibition at 1 µM [2]	inhibition at 1 µM [3]	inhibition at 1 µM [4]	inhibition at 1 µM [5]	inhibition at 1 µM [6]	inhibition at 1 µM [7]	inhibition at 1 µM [8]	inhibition at 1 µM [9]	inhibition at 1 µM [10]
C=CC(=O)N1CCCC(c2c(F)cc(C(N)=O)c3[nH]c4c(c23)CCCCC4)C1 (single isomer, unassigned) [Compound 5-6]	-9.4%	-30.9%	-2.7%	4.3%	8.9%	1.3%	-13.5%	-20.9%	30.3%	-4%
C=CC(=O)N1CCC[C@@H](c2c(F)cc(C(N)=O)c3[nH]c4c(c23)CC2(CC4)CC2)C1 [Compound 6-2, (S)-5-(1-acryloylpiperidin-3-yl)-6-fluoro-1,2,4,9-tetrahydrospiro[carbazole-3,1′-cyclopropane]-8-carboxamide]	-6.4%	-16.2%	-1.1%	10.7%	28.9%	10.9%	13.2%	13.1%	65.7%	8.5%
C=CC(=O)N1CCC[C@@H](c2c(F)cc(C(N)=O)c3[nH]c4c(c23)CCC4)C1 [Compound 10-2, (S)-8-(1-acryloylpiperidin-3-yl)-7-fluoro-1,2,3,4-tetrahydrocyclo-penta[b]indole-5-carboxamide]	-8.5%	1.8%	3.5%	14.8%	23.2%	-33%	2.2%	19.7%	-2.3%	-4.2%

Source: US20220009920A1 (GB005, Inc., priority 2020, published 2022)
